# Experimental data from article PMC4029803, “Glutathione-Binding Site of a Bombyx mori Theta-Class Glutathione Transferase” (PLoS ONE, 2014).
# T1: bmGSTT (Bombyx mori, UniProt B0LB14, E66A)
# T1 construct: cDNA from larval fat body; primers encode N-terminal MVLKLYYD and C-terminal AANSKL
# T1 sequence (B0LB14 1-229 E66A): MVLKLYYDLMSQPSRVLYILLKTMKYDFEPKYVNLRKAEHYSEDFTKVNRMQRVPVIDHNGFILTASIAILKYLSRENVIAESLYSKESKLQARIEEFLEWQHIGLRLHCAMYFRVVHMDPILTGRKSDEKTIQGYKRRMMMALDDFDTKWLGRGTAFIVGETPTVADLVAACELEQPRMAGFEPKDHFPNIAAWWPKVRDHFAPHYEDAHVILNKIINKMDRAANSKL
# T2: bmGSTT (Bombyx mori, UniProt B0LB14, H40A)
# T2 construct: cDNA from larval fat body; primers encode N-terminal MVLKLYYD and C-terminal AANSKL
# T2 sequence (B0LB14 1-229 H40A): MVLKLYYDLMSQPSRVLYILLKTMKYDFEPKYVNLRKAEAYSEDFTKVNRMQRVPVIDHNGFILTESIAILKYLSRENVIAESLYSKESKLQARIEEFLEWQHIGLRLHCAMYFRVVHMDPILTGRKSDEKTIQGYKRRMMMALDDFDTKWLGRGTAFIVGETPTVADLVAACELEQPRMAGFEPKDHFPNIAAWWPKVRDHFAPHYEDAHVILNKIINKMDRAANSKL
# T3: bmGSTT (Bombyx mori, UniProt B0LB14, R107A)
# T3 construct: cDNA from larval fat body; primers encode N-terminal MVLKLYYD and C-terminal AANSKL
# T3 sequence (B0LB14 1-229 R107A): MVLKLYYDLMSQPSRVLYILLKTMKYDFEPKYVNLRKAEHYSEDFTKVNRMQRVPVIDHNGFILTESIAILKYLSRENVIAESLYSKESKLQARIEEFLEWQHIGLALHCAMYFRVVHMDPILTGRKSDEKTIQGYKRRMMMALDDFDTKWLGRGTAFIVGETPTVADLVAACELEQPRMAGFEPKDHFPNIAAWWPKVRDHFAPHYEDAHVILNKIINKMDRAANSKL
# T4: bmGSTT (Bombyx mori, UniProt B0LB14)
# T4 construct: cDNA from larval fat body; primers encode N-terminal MVLKLYYD and C-terminal AANSKL
# T4 sequence (B0LB14 1-229): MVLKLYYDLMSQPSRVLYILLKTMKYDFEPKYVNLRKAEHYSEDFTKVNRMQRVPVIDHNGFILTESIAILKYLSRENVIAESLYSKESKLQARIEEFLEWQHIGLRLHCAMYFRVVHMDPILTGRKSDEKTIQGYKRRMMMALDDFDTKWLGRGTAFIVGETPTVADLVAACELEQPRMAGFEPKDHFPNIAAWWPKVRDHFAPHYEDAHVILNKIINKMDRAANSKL
# Legend:
# bmGSTT [1] = molecular target: T1, bmGSTT; assay: spectrophotometric GST assay, […] nm; type: biochemical; conditions: 5 mM GSH; read-out: bmGSTT mutants / E66A
# bmGSTT [2] = molecular target: T2, bmGSTT; assay: spectrophotometric GST assay, […] nm; type: biochemical; conditions: 5 mM GSH; read-out: bmGSTT mutants / H40A
# bmGSTT [3] = molecular target: T3, bmGSTT; assay: spectrophotometric GST assay, […] nm; type: biochemical; conditions: 5 mM GSH; read-out: bmGSTT mutants / R107A
# bmGSTT [4] = molecular target: T4, bmGSTT; assay: spectrophotometric GST assay, […] nm; type: biochemical; conditions: 5 mM GSH; Table 1 activity at pH 8; read-out: WT
# purified protein = substrate: O=[N+]([O-])c1ccc(CCBr)cc1; assay: purified protein; conditions: 5 mM GSH
molecule,measurement,setting,value
"O=[N+]([O-])c1ccc(Cl)c([N+](=O)[O-])c1 [CDNB, 1-chloro-2,4-dinitrobenzene]",Km,bmGSTT [1],12000 µM
same,Km,bmGSTT [2],520 µM
same,Km,bmGSTT [3],960 µM
same,Km,bmGSTT [4],1500 µM
bmGSTT (Bombyx mori; H40A) (protein) MVLKLYYDLMSQPSRVLYILLKTMKYDFEPKYVNLRKAEAYSEDFTKVNRMQRVPVIDHNGFILTESIAILKYLSRENVIAESLYSKESKLQARIEEFLEWQHIGLRLHCAMYFRVVHMDPILTGRKSDEKTIQGYKRRMMMALDDFDTKWLGRGTAFIVGETPTVADLVAACELEQPRMAGFEPKDHFPNIAAWWPKVRDHFAPHYEDAHVILNKIINKMDRAANSKL,Km,purified protein,2.3 (0.22) mM
bmGSTT (Bombyx mori; V54A) (protein) MVLKLYYDLMSQPSRVLYILLKTMKYDFEPKYVNLRKAEHYSEDFTKVNRMQRAPVIDHNGFILTESIAILKYLSRENVIAESLYSKESKLQARIEEFLEWQHIGLRLHCAMYFRVVHMDPILTGRKSDEKTIQGYKRRMMMALDDFDTKWLGRGTAFIVGETPTVADLVAACELEQPRMAGFEPKDHFPNIAAWWPKVRDHFAPHYEDAHVILNKIINKMDRAANSKL,Km,purified protein,0.50 (0.083) mM
bmGSTT (Bombyx mori) (protein) MVLKLYYDLMSQPSRVLYILLKTMKYDFEPKYVNLRKAEHYSEDFTKVNRMQRVPVIDHNGFILTESIAILKYLSRENVIAESLYSKESKLQARIEEFLEWQHIGLRLHCAMYFRVVHMDPILTGRKSDEKTIQGYKRRMMMALDDFDTKWLGRGTAFIVGETPTVADLVAACELEQPRMAGFEPKDHFPNIAAWWPKVRDHFAPHYEDAHVILNKIINKMDRAANSKL,Km,purified protein; Table 1 activity at pH 8,0.13 (0.03) mM
bmGSTT (Bombyx mori; R107A) (protein) MVLKLYYDLMSQPSRVLYILLKTMKYDFEPKYVNLRKAEHYSEDFTKVNRMQRVPVIDHNGFILTESIAILKYLSRENVIAESLYSKESKLQARIEEFLEWQHIGLALHCAMYFRVVHMDPILTGRKSDEKTIQGYKRRMMMALDDFDTKWLGRGTAFIVGETPTVADLVAACELEQPRMAGFEPKDHFPNIAAWWPKVRDHFAPHYEDAHVILNKIINKMDRAANSKL,Km,purified protein,0.52 (0.071) mM
